Twelve compounds from PubChem BioAssay (NCI) can be followed below.

SMILES strings stand for the structures.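 Cells were grown in 96-well plates and exposed to each compound for 48 hours at five concentrations; endpoints were interpolated linearly between bracketing concentrations, or set to the highest concentration if not reached. GI50: concentration for 50% inhibition of growth. Definition used: TGI = concentration required for complete inhibition of growth.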 Bounds are passed on as bounds.

Among the test systems are RXF 393 renal; EKVX NSCLC; HCT-116 colon; TK-10 renal; 786-0 renal; HOP-62 NSCLC; A549 NSCLC; OVCAR-4 ovarian.
Common to all, as to experiment: growth of human tumour cells (NCI), 48 h

In the case of `COc1ccc(/C=C(/C)[N+](=O)[O-])cc1`, the TGI was determined as 3.16 µM in the experiment on RXF 393 renal; 4.91 µM with EKVX NSCLC; 3.14 µM in the experiment with HCT-116 colon; 3.64 µM with TK-10 renal; 2.51 µM in the experiment with 786-0 renal; 3.61 µM in the experiment with HOP-62 NSCLC. Moreover, the TGI in the experiment with A549 NSCLC was determined as 18.2 µM; with OVCAR-4 ovarian it was 10.6 µM.

Consider `CCc1c(O)c2c(c(O)c1C(C)=O)C(=O)c1c(cc(O)c(C(=O)O)c1C(=O)O)C2=O`, for which the TGI in the experiment on RXF 393 renal, in the experiment on EKVX NSCLC, in the experiment on HCT-116 colon, in the experiment on TK-10 renal, with 786-0 renal and with HOP-62 NSCLC was above 100 µM each time. In addition, the TGI with A549 NSCLC and in the experiment on OVCAR-4 ovarian was above 100 µM each time.

On to `CC(O)(CNS(=O)(=O)c1ccccc1)c1ccccc1` (configuration not stated), for which the TGI in the experiment with RXF 393 renal, in the experiment on EKVX NSCLC, with HCT-116 colon, with TK-10 renal, with 786-0 renal and in the experiment with HOP-62 NSCLC was above 100 µM throughout. The TGI in the experiment with A549 NSCLC and with OVCAR-4 ovarian was above 100 µM each time.

With `C1=C(c2ccccc2)SC=C(c2ccccc2)S1`, the TGI is 48.1 µM with RXF 393 renal; above 100 µM with EKVX NSCLC; above 100 µM with HCT-116 colon; above 100 µM with TK-10 renal; above 100 µM with 786-0 renal; above 100 µM with HOP-62 NSCLC. The TGI in the experiment on A549 NSCLC and in the experiment on OVCAR-4 ovarian was above 100 µM each time.

`CCCCCCNc1nc(N2CCOCC2)c2[nH]c(NCCCCCC)nc2n1`: the GI50 in the experiment with RXF 393 renal was 1.36 µM; in the experiment on HCT-116 colon, 1.83 µM; in the experiment on TK-10 renal it was 1.87 µM; in the experiment with 786-0 renal, 1.8 µM; in the experiment on HOP-62 NSCLC, 1.67 µM; in the experiment with A549 NSCLC it was 1.69 µM. The GI50 in the experiment on OVCAR-4 ovarian was 1.43 µM. The TGI was determined as 2.67 µM in the experiment with RXF 393 renal; 3.27 µM with HCT-116 colon; 3.45 µM in the experiment with TK-10 renal; 3.19 µM in the experiment on 786-0 renal; 3.27 µM in the experiment with HOP-62 NSCLC; 3.38 µM with A549 NSCLC. Moreover, the TGI in the experiment on OVCAR-4 ovarian was determined as 2.87 µM.

For the compound `COc1cc(-c2cc(/C=C3\C(=O)Nc4ccccc43)[nH]n2)cc(OC)c1OC`, the GI50 with RXF 393 renal was 8.83 µM; in the experiment with HCT-116 colon, 2.74 µM; in the experiment with 786-0 renal, 5.1 µM; with HOP-62 NSCLC it was 3.2 µM; in the experiment on A549 NSCLC, 3.36 µM; in the experiment on OVCAR-4 ovarian, 1.91 µM. The TGI with RXF 393 renal came to 22.5 µM; in the experiment on HCT-116 colon, 11.1 µM; with 786-0 renal it was 20.2 µM; in the experiment with HOP-62 NSCLC it was 14.9 µM; in the experiment with A549 NSCLC, 13 µM; in the experiment with OVCAR-4 ovarian, 8.98 µM.

In the case of `O=C(CNc1ncco1)Nc1ccc(S(=O)(=O)c2ccc(NC(=O)CNc3ncco3)cc2)cc1`, the GI50 is 1.42 µM with RXF 393 renal; 2.23 µM in the experiment on EKVX NSCLC; 1.42 µM with HCT-116 colon; 11.7 µM in the experiment on TK-10 renal; 3.95 µM in the experiment on 786-0 renal; 2.07 µM in the experiment on HOP-62 NSCLC. Besides, the GI50 with A549 NSCLC is 2.2 µM. Besides, the TGI with RXF 393 renal is 2.86 µM; in the experiment on EKVX NSCLC, 9 µM; in the experiment on HCT-116 colon, 2.98 µM; in the experiment with TK-10 renal, 25 µM; in the experiment on 786-0 renal, 18.3 µM; in the experiment on HOP-62 NSCLC, 4.09 µM. In the experiment with A549 NSCLC, the TGI was 6.42 µM.

On to `Cc1cccc2c1O/C(=C\c1ccc([N+](=O)[O-])o1)C2=O`, for which the GI50 in the experiment with RXF 393 renal is 1.24 µM; in the experiment with HCT-116 colon, 0.251 µM; with TK-10 renal it was 2.3 µM; in the experiment with 786-0 renal, 1.8 µM; with HOP-62 NSCLC, 1.64 µM; with A549 NSCLC, 2.56 µM. For the same compound, the GI50 in the experiment with OVCAR-4 ovarian is 2.06 µM. Moreover, the TGI was 2.83 µM in the experiment with RXF 393 renal; 0.777 µM in the experiment with HCT-116 colon; 5.61 µM in the experiment with TK-10 renal; 4.27 µM in the experiment on 786-0 renal; 4.44 µM in the experiment on HOP-62 NSCLC; 7.81 µM in the experiment with A549 NSCLC. The compound further yielded a TGI in the experiment with OVCAR-4 ovarian of 8.06 µM.

On to `CCCCCCCCCCCCCC(=O)C(C)N` (configuration not stated), for which the GI50 is 4.46 µM in the experiment on RXF 393 renal; 2.13 µM in the experiment on EKVX NSCLC; 5.27 µM in the experiment with HCT-116 colon; 3.81 µM in the experiment on TK-10 renal; 12.4 µM in the experiment on 786-0 renal; 4.76 µM with HOP-62 NSCLC. In addition, the GI50 in the experiment on A549 NSCLC is 8.94 µM; in the experiment with OVCAR-4 ovarian it was 3.9 µM. For the same compound, the TGI came to 17 µM in the experiment on RXF 393 renal; 4.75 µM in the experiment with EKVX NSCLC; 18.7 µM in the experiment with HCT-116 colon; 13.2 µM in the experiment with TK-10 renal; 26.2 µM in the experiment with 786-0 renal; 16.9 µM in the experiment with HOP-62 NSCLC. The TGI in the experiment on A549 NSCLC turned out to be 22.5 µM; with OVCAR-4 ovarian, 16.1 µM.

As to `O=C(O)c1cscc1Cc1cccs1`, the TGI in the experiment on RXF 393 renal, in the experiment on EKVX NSCLC, with HCT-116 colon, with TK-10 renal, with 786-0 renal and in the experiment with HOP-62 NSCLC was above 100 µM throughout. Moreover, the TGI in the experiment on A549 NSCLC and with OVCAR-4 ovarian was above 100 µM in each case.

Take `[C-]#[N+][C@]12C(=O)[C@H](CCC1(C)C)C(C)(C)[C@H]1C(=O)N(C)c3cccc2c31`: the GI50 in the experiment on RXF 393 renal was above 100 µM; with HCT-116 colon it was 3.73 µM; with TK-10 renal it was above 100 µM; in the experiment with 786-0 renal, above 100 µM; in the experiment on HOP-62 NSCLC, 9.6 µM; in the experiment with A549 NSCLC, 5.42 µM. For the same compound, in the experiment on OVCAR-4 ovarian, the GI50 is 3.82 µM. The TGI in the experiment with RXF 393 renal, in the experiment on HCT-116 colon, in the experiment with TK-10 renal, with 786-0 renal, in the experiment on HOP-62 NSCLC and with A549 NSCLC was above 100 µM in each case. This compound yielded a TGI with OVCAR-4 ovarian above 100 µM.

As to `O=[N+]([O-])c1ccc(/C=C(/c2ccc([N+](=O)[O-])o2)S(=O)(=O)c2ccccc2)o1`, the TGI in the experiment with RXF 393 renal was above 100 µM; in the experiment on EKVX NSCLC, 22.8 µM; with HCT-116 colon, 3.08 µM; in the experiment with TK-10 renal it was 15.2 µM; with 786-0 renal, 14.7 µM; in the experiment on HOP-62 NSCLC, 38.3 µM. In addition, the TGI in the experiment on A549 NSCLC was 38.2 µM; in the experiment with OVCAR-4 ovarian it was 15.5 µM.
